Laboratory results published in patent EP2818471A1, “Nitrogen bicyclic compounds as inhibitors for Scyl1 and Grk5” (Max-Planck-Gesellschaft zur Förderung der Wissenschaften …, priority 2013, dated 2014).

System: beta-TC6 cells
Assay: Insulin HTRF assay, relative activity Ar normalized to sunitinib
Assay type: cell-based
Settings: Mus musculus, normalized to positive control sunitinib (5 µM = 100%), Table 10
Outline: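 beta-TC6 cells (15k/well) were seeded for 24 or 48 h, washed and exposed to test compound or sunitinib (5 µM f.c.) in induction buffer with 0.5% DMSO for 2, 3 or 4 h at 37°C. Secreted insulin in the supernatant was measured by two-antibody HTRF after 120 min at RT. Ar = (V − 0% control)/(100% control − 0% control) × 100.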

SMILES | Emax
CN(C)C(=O)c1ccc(-c2cnc3cnc(-c4ccsc4)cn23)cc1 [compound 431, N,N-dimethyl-4-[6-(3-thienyl)imidazo[1,2-a]pyrazin-3-yl]benzamide] | 20 to 50%
Oc1cccc(-c2ccc3nnc(-c4ccccn4)n3c2)c1 [compound 247, 3-[3-(2-pyridyl)-[1,2,4]triazolo[4,3-a]pyridin-6-yl]phenol] | 50 to 100%
COc1cncc(-c2ccc3nnc(-c4cccc(OC(F)(F)F)c4)n3c2)c1 [compound 192, 6-(5-methoxy-3-pyridyl)-3-[3-(trifluoromethoxy)phenyl]-[1,2,4]triazolo[4,3-a]pyridine] | 50 to 100%
COc1ccc(-c2cn3c(-c4ccc(N(C)C)cc4)cnc3cn2)cn1 [compound 288, 4-[6-(6-methoxy-3-pyridyl)imidazo[1,2-a]pyrazin-3-yl]-N,N-dimethyl-aniline] | 50 to 100%
CN(C)C(=O)c1ccc(-c2cnc3cnc(-c4ccccc4Oc4ccccc4)cn23)cc1 [compound 430, N,N-dimethyl-4-[6-(2-phenoxyphenyl)imidazo[1,2-a]pyrazin-3-yl]benzamide] | 20 to 50%
CSc1ccc(-c2cn3c(-c4cccnc4)cnc3cn2)cc1 [compound 317, 6-(4-methylsulfanylphenyl)-3-(3-pyridyl)imidazo[1,2-a]pyrazine] | 20 to 50%
c1cc2cc(-c3ccc4nnc(-c5cscn5)n4c3)ccc2[nH]1 [compound 229, 4-[6-(1H-indol-5-yl)-[1,2,4]triazolo[4,3-a]pyridin-3-yl]thiazole] | 50 to 100%
CN(C)c1cccc(-c2cnc3cnc(-c4ccsc4)cn23)c1 [compound 343, N,N-dimethyl-3-[6-(3-thienyl)imidazo[1,2-a]pyrazin-3-yl]aniline] | 50 to 100%
CN(C)c1ccc(-c2cnc3cnc(-c4ccc(C(=O)NCCO)cc4)cn23)cc1 [compound 290, 4-[3-(4-dimethylaminophenyl)imidazo[1,2-a]pyrazin-6-yl]-N-(2-hydroxyethyl)benzamide] | 50 to 100%
N#Cc1ccc(-c2cnc3cnc(-c4ccccc4)cn23)cc1 [compound 335, 4-(6-phenylimidazo[1,2-a]pyrazin-3-yl)benzonitrile] | 20 to 50%
CN(C)c1ccc(-c2cnc3cnc(-c4ccc(C(=O)N5CCOCC5)cc4)cn23)cc1 [compound 291, [4-[3-(4-dimethylaminophenyl)imidazo[1,2-a]pyrazin-6-yl]phenyl]-morpholino-methanone] | 20 to 50%
CN1CCN(c2ccc(-c3cnc4cccnn34)cn2)CC1 [compound 69, 3-[6-(4-methylpiperazin-1-yl)-3-pyridyl]imidazo[1,2-b]pyridazine] | 10 to 20%
COc1ccc(-c2cnc3ccc(NCc4cccs4)nn23)c(OC)c1 [compound 6, 3-(2,4-dimethoxyphenyl)-N-(2-thienylmethyl)imidazo[1,2-b]pyridazin-6-amine] | 20 to 50%
CN(C)c1ccc(-c2cnc3cnc(-c4cccc(C(=O)NCCO)c4)cn23)cc1 [compound 286, 3-[3-(4-dimethylaminophenyl)imidazo[1,2-a]pyrazin-6-yl]-N-(2-hydroxyethyl)benzamide] | 20 to 50%
CN1CCN(C(=O)c2cccc(-c3cnc4cnc(-c5ccc6c(c5)OCO6)cn34)c2)CC1 [compound 355, [3-[6-(1,3-benzodioxol-5-yl)imidazo[1,2-a]pyrazin-3-yl]phenyl]-(4-methylpiperazin-1-yl)methanone] | 20 to 50%
O=C(Nc1cnc2cnc(-c3ccsc3)cn12)c1cccs1 [compound 263, N-[6-(3-thienyl)imidazo[1,2-a]pyrazin-3-yl]thiophene-2-carboxamide] | 20 to 50%
Oc1cccc(-c2cnc3ccc(-c4ccc(F)cc4)nn23)c1 [compound 127, 3-[6-(4-fluorophenyl)imidazo[1,2-b]pyridazin-3-yl]phenol] | 20 to 50%
CN(C)c1ccc(-c2cnc3cnc(-c4cccc(NS(C)(=O)=O)c4)cn23)cc1 [compound 295, N-[3-[3-(4-dimethylaminophenyl)imidazo[1,2-a]pyrazin-6-yl]phenyl]methanesulfonamide] | 20 to 50%
